In paper PMC8000760, “Potential Effect of Pseudevernia furfuracea (L.) Zopf Extract and Metabolite Physodic Acid on Tumour Microenvironment Modulation in MCF-10A Cells” (Biomolecules, 2021):

Assays:
[1] = system: chorioallantoic membrane (CAM) of fertilised quail eggs; assay: Ex ovo chorioallantoic membrane (CAM) assay; format: in vivo, Coturnix coturnix japonica
Experimental: Fertilised quail eggs (Coturnix coturnix japonica; 20 specimens) were obtained from the certified farm (Mala Ida, Slovakia) and incubated horizontally in a forced draft constant humidity incubator at 38.2 ± 0.5 °C and 58% relative humidity. After 56 h, the eggs were sterilised by wiping the surface lightly with 70% ethanol and allowed to dry. An incision was made in the middle ventral part of the shell, using sterile scissors, and the embryos were deposited in six-well tissue culture dishes (Sigma-Aldrich), which were then returned to the humidified incubator for an additional 4 days, until the start of the experiments. At day 7 (96 h after day 3), a sterilised silicone ring (10 mm inner diameter) was laid on CAM surface for the deposition of testing solution. […] At least 10 eggs were used in every experimental group. The photographs of CAM blood vessels’ formation inside of rings were obtained using a stereomicroscope Olympus SZ61 (Tokyo, Japan) and digital camera PROMICRA 3.2 (Prague, Czech Republic). Subsequently, photographs were pre-processed using QuickPHOTO MICRO microscope software (Promicra; Prague, Czech Republic). Representative images were then analysed using Wimasis Image Analysis automatic software to quantify the angiogenesis.

[2] = system: N-cadherin in TGF-β-stimulated MCF-10A cells; assay: N-cadherin expression, flow cytometry; format: cell-based, human; details: IC10, 24, 48, 72 h, compared to TGF-β alone
Experimental: (§1) The MCF-10A and BJ-5ta cells were seeded and cultivated for 24 h in a complete medium. One day after seeding, 30 ng/mL of TGF-β was added and cultivated for 7 days (d). TGF-β was added to induce epithelial–mesenchymal transition in tested cell lines. Lichen extract P. furfuracea (L.) Zopf and its metabolite physodic acid were added at time 0 h and then incubated for 24, 48 and 72 h for various analyses, as described in Figure 1.
(§2) The MCF-10A cells (1 × 10^4/well) were seeded in Petri dishes and stimulated with […] TGF-β for 7 days. […] After detaching, using Trypsin/EDTA, cells were harvested and pelleted by centrifugation at 1200 rpm for 5 min. Pellet was re-suspended in PBS and divided for a particular analysis. Cells were stained prior to analyses with E-Cadherin Mouse mAb (Alexa Fluor 488 conjugate) or N-cadherin Rabbit mAb (Alexa Fluor 647 conjugate) (Cell Signalling) for 15 min at RT in the dark. For the cell cycle analyses, cells were re-suspended in staining solution (final concentration 0.1% Triton X-100, 0.5 mg/mL ribonuclease A and 0.025 mg/mL propidium iodide (PI)), and incubated in the dark at RT for 30 min. All samples were analysed using a FACS Calibur flow cytometer (Becton Dickinson, San Jose, CA, USA). The IgG isotype control checking was performed for every used antibody.

[3] = system: MCF-10A, BJ-5ta and HUVEC cells; assay: MTS cell viability assay, range over the three cell lines; format: cell-based; details: cell viability and cell proliferation tests
Experimental: Briefly, MCF-10A and BJ-5ta were seeded in 96-well culture plates, and after 24 h incubation, treated with various ranges of concentrations of tested compounds (10–100 μg/mL) for 72 h. At the same time, HUVECs were seeded in a gelatine-coated 96-well plate and treated with the same aliquots of indicated compounds in the presence or absence of VEGF (Vascular endothelial growth factor) (25 ng/mL) for 48 h. Cell viability was evaluated by measuring the absorbance at 490 nm using the automated CytationTM 3 Cell Imaging Multi-Mode Reader (Biotek, Winooski, VT, USA). Three independent experiments were performed at different intervals.

BJ-5ta = assay: BrdU cell proliferation assay; format: cell-based; details: 72 h
Experimental: The MCF-10A (5 × 10^3/well), BJ-5ta (5 × 10^3/well) and HUVEC cells (4 × 10^3/well) were plated in a 96-well plate in 80 μL suitable medium. HUVECs were seeded onto a gelatine-coated plate. After 24 h, cells were treated with the range of concentration 10–100 μg/mL for 72 h (MCF-10A, BJ-5ta), or in the presence or absence of 25 ng/mL of VEGF for 48 h (HUVECs). After 48 h (MCF-10A, BJ-5ta) or 24 h (HUVECs), BrdU labelling solution was added into cells and incubated for another 24 h at 37 °C, followed by fixation and incubation with anti-BrdU peroxidase conjugate solution for an additional 1.5 h at room temperature (RT). Then, cells were washed with washing buffer PBS and incubated with substrate solution TMB for 5 to 30 min according to colour intensity. Finally, we added stop solution (1 M H2SO4) and incorporated BrdU was detected with an automated CytationTM 3 Cell Imaging Multi-Mode Reader at 450 nm (reference wavelength: 690 nm). Three independent experiments were performed at different intervals.

MCF-10A cells = assay: Flow cytometry cell cycle phase distribution; format: cell-based, human
Experimental: as §1, §2

[4] = VEGF-stimulated (25 ng/mL), IC10, 72 h, compared to VEGF alone
[5] = 24 h, IC10, in the presence of 30 ng/mL TGF-β
[6] = 24 h, treatment alone (IC10 of PSE/Phy, or TGF-β 30 ng/mL)
[7] = 48 h, IC10, in the presence of 30 ng/mL TGF-β
[8] = 48 h, treatment alone (IC10 of PSE/Phy, or TGF-β 30 ng/mL)
[9] = 72 h, IC10, in the presence of 30 ng/mL TGF-β
[10] = 72 h, treatment alone (IC10 of PSE/Phy, or TGF-β 30 ng/mL)

## CCCCCC(=O)Cc1cc(O)cc2c1C(=O)Oc1cc(O)c(C(=O)O)c(CCCCC)c1O2 [Phy, physodic acid]
[1]; [4]
  total branching points: significant decrease
  total vascular network length: significant decrease
  vascular density: significant decrease
[1]; absence of VEGF
  total branching points: not significantly affected
[1]; non-stimulated group (absence of VEGF)
  vessel density: significant change
[2]
  N-cadherin expression, flow cytometry: significantly reduced
[3]
  degree of cytotoxicity on all tested cells: did not show a high degree of cytotoxicity
BJ-5ta
  IC10: 62.88 ± 0.90 µM
  IC50: 164 ± 4.5 µM
MCF-10A cells; [5]
  G1 cell cycle phase distribution: 73.45 ± 0.69
  G2/M cell cycle phase distribution: 13.25 ± 2.08
  S cell cycle phase distribution: 12.20 ± 2.69
  Sub G0 cell cycle phase distribution: 1.10 ± 0.07
MCF-10A cells; [6]
  G1 cell cycle phase distribution: 73.25 ± 0.37
  G2/M cell cycle phase distribution: 13.85 ± 0.61
  S cell cycle phase distribution: 12.05 ± 0.86
  Sub G0 cell cycle phase distribution: 0.86 ± 0.12
MCF-10A cells; [7]
  G1 cell cycle phase distribution: 89.05 ± 1.18^Δ
  G2/M cell cycle phase distribution: 5.78 ± 1.16
  S cell cycle phase distribution: 3.36 ± 0.27
  Sub G0 cell cycle phase distribution: 1.82 ± 0.24
MCF-10A cells; [8]
  G1 cell cycle phase distribution: 88.15 ± 0.53
  G2/M cell cycle phase distribution: 5.06 ± 1.00
  S cell cycle phase distribution: 4.23 ± 0.48
  Sub G0 cell cycle phase distribution: 2.54 ± 0.04
MCF-10A cells; [9]
  G1 cell cycle phase distribution: 89.75 ± 0.86^Δ
  G2/M cell cycle phase distribution: 4.34 ± 1.27^Δ
  S cell cycle phase distribution: 3.14 ± 0.52
  Sub G0 cell cycle phase distribution: 2.77 ± 0.94
MCF-10A cells; [10]
  G1 cell cycle phase distribution: 88.50 ± 1.14
  G2/M cell cycle phase distribution: 3.99 ± 0.80
  S cell cycle phase distribution: 5.45 ± 2.26
  Sub G0 cell cycle phase distribution: 2.06 ± 0.35
MCF-10A cells; IC10, absence or presence of TGF-β 30 ng/mL, 24, 48 and 72 h
  cell cycle phase distribution versus control or TGF-β alone: no significant differences
